# Results reported in patent US10294230B2, “3,3-difluoropiperidine carbamate heterocyclic compounds as NR2B NMDA receptor antagonists” (Rugen Holdings (Cayman) Limited, priority 2015, dated 2019).
# How the values were obtained:
# [1] = molecular target: CYP2D6 (Homo sapiens (Human), UniProt P10635); experiment: CYP P450 enzyme inhibition, pooled human liver microsome; assay type: in vitro ADME; conditions: 10 μM, pooled HLM, dextromethorphan 5 μM
# Method: Those CYP isoforms and their corresponding probe substrates are as follows: CYP1A2 (phenacetin, 30 μM), CYP2C9 (tolutamide, 100 μM), CYP2C19 (S-mephenytoin, 40 μM), CYP2D6 (dextromethorphan, 5 μM) and CYP3A4 (midazolam, 1 μM). All probe substrates were used at concentrations near or below their Kms. For experiment, a reaction mixture of test compound at 10 μM or in serial dilution, CYP probe substrate described above and 0.2 mg/mL pooled HLM in phosphate buffer, pH 7.4 in a final volume of 200 μL was pre-incubated at 37° C. for 10 minutes in triplicate. The reaction was initiated by addition of NADPH at final concentration of 1 mM. The reaction was terminated after 10 minutes (CYP1A2, CYP2D6 and CYP3A4) or 30 minutes (CYP2C9 and CYP2C19) by addition of 100 μL ice-cold acetonitrile with internal standard (IS). The samples were then centrifuged at 13,000 rpm and the supernatants were injected to LC-MS/MS (Agilent Technologies) to quantify the concentration of the specific metabolites of the probe substrates formed by individual CYP450 isoforms. The inhibition ratio is calculated as: (Mt−M0)/Mwater×100% in which Mt and M0 represent the concentrations of the specific probe substrate metabolite, which was formed by individual CYP450 isoform, at the beginning and end of the reaction in the presence of test compound; while Mwater represents the concentration of the specific metabolite at the end of the reaction in the absence of test compound. Test compound concentration-dependent response data experiments performed in triplicate.
# [2] = molecular target: NR2B receptor (Rattus norvegicus (Rat), UniProt P35439+Q00960); experiment: [3H] (E)-N1-(2-methoxybenzyl)-cinnamidine radioligand binding, rat brain membranes; conditions: for displacement of [3H] (E)-N1-(2-methoxybenzyl)-cinnamidine at the NR2B receptor high affinity site: rat brain membranes
# NR2B receptor, sequence (Q00960 27-1482, other chains not shown): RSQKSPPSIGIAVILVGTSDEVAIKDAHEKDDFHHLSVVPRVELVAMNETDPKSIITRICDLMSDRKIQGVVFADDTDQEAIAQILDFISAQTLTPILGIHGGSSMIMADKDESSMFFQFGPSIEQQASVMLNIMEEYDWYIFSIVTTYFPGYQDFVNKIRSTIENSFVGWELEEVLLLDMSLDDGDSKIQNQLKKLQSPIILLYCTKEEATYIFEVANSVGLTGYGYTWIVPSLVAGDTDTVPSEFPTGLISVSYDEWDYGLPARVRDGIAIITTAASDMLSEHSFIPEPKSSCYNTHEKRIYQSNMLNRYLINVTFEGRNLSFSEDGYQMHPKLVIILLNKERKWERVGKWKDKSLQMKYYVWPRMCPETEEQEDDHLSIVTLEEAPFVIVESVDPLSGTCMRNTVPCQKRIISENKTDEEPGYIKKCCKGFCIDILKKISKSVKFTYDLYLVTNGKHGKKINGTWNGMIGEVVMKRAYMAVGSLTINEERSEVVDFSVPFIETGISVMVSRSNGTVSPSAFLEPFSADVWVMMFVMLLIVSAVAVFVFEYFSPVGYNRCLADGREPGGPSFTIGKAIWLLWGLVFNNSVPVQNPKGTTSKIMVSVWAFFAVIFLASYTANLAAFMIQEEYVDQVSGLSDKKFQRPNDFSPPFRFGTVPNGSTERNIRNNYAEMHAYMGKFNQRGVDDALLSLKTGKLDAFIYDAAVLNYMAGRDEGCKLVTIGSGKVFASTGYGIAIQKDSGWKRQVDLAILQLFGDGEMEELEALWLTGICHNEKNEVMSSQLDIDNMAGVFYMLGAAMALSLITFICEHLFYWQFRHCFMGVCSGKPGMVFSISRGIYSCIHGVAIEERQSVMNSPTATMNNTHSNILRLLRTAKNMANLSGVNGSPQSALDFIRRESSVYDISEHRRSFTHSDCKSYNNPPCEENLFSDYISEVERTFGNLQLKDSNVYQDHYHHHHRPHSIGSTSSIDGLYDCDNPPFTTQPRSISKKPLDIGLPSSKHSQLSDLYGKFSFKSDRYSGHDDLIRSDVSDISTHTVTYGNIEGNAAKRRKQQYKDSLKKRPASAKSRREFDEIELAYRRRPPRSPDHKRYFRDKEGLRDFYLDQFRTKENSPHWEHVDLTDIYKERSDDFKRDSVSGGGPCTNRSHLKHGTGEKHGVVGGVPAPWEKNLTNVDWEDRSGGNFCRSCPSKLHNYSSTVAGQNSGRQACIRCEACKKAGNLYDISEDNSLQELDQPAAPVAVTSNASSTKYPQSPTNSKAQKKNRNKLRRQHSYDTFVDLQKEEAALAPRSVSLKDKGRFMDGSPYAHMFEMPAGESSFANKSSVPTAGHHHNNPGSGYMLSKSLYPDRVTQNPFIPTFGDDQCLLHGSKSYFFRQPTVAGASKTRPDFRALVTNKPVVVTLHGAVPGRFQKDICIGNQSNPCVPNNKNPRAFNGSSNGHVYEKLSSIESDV
# Method: (§1) This example describes NMDA receptor binding assays using two different radioligands, [^3H] […] An established binding assay using the non-selective NMDA receptor ligand [^3H] […] The binding assay method using the NR2B selective receptor ligand [^3H] […] This assay serves as a selective measure of NR2B receptor binding activity in native rat brain receptors. Briefly, the brains of Male Wistar rats were homogenized (Polytron) before centrifugation at 40,000×g for 15 minutes at 4° C. After 2 washes, the final pellet was homogenized and stored at −80° C. The protein concentration was determined by Bradford assay.
# [^3H] […] Thus, using [^3H]
# (§2) Test compounds were solubilized at 10 mM in DMSO. Then the dilutions were performed with a constant solvent concentration (1% DMSO) in the assay.
# (§3) After incubation for 4.5 h at room temperature, the assays were filtered on GF/B filters pretreated with 0.3% (v/v) PEI with a Brandel system for [^3H] […] The experiment was performed in duplicate (n=2).
# [3] = molecular target: human NR1/NR2B (Homo sapiens (Human), UniProt Q05586+Q13224); experiment: NR2B antagonist activity, Fluo-4 calcium influx in HEK293 cells; assay type: cell-based
# human NR1/NR2B, sequence (Q13224 27-1484, other chains not shown): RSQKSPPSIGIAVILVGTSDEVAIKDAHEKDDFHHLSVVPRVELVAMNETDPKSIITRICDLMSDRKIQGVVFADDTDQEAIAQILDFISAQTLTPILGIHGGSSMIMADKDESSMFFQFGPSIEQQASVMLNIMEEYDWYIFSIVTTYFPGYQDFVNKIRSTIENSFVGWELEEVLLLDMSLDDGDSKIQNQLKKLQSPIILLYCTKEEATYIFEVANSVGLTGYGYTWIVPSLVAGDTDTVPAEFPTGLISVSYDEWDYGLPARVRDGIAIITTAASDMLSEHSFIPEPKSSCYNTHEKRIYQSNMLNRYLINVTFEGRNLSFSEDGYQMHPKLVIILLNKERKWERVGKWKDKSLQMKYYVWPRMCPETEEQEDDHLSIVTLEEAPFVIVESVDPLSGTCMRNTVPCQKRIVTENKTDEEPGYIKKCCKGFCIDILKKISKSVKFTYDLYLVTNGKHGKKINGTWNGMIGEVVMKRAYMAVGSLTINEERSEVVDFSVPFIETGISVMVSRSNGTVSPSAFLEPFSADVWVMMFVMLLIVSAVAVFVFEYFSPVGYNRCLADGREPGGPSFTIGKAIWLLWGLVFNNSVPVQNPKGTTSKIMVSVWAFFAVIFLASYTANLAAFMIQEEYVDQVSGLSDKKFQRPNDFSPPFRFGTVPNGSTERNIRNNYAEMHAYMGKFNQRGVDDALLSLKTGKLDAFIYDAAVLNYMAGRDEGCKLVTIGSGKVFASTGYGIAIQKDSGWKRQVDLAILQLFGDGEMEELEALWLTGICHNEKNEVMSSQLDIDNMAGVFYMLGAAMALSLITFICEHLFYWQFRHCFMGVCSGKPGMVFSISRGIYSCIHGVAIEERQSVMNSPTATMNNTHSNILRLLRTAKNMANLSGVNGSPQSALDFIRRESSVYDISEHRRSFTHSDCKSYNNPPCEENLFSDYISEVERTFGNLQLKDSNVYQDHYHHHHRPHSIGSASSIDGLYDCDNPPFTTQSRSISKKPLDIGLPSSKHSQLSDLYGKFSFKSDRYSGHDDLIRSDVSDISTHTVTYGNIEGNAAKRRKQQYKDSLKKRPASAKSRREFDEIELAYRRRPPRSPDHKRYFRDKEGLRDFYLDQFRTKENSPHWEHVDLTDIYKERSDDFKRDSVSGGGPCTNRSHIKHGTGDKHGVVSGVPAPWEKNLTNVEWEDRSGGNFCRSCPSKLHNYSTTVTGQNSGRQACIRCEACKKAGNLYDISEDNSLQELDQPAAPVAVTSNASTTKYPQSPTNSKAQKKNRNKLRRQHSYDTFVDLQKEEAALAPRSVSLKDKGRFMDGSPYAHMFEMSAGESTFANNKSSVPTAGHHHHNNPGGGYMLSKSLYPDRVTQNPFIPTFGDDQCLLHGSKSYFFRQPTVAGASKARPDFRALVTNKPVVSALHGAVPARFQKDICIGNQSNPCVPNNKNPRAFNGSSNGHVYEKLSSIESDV
# Method: (§4) HEK293 cell lines stably expressing cloned human NR1/NR2B and NR1/NR2A, respectively, were established according to standard previously described methods (Hansen et al., Comb. Chem High Throughput Screen. 11:304, 2008). Activation of the NR2A or NR2B subtype of NMDA receptor with glutamate as an agonist and glycine co-agonist on these cells results in calcium influx, which can be monitored with fluorescent indicator Fluo-4.
# (§5) For experiments, the cells were seeded onto poly-D-lysine-coated 96-well black plates with clear bottom (Corning) at a density of ˜50,000 cells/well. After overnight culture, the growth medium was removed from the wells and the cells were incubated at 37° C. for 60 min in Hanks buffer containing 4 μM fluo-4-AM (Invitrogen) and 0.1% bovine serum albumin (BSA). After dye-loading, the cells were washed three times with Hanks buffer and incubated for 10 min at room temperature with various concentrations of test compounds prepared in Hanks buffer with 0.1% BSA. The cell plates were placed onto FDSS pCell fluorescence reader (Hamamatsu). After 20 sec reading of background fluorescence, agonist glutamate at final 100 μM and co-agonist glycine at final 50 μM were added to the cells to activate the receptor, and the resulting fluorescence changes were recorded and quantified. Based on the changes in fluorescence intensity, the pharmacological effect of test compounds were analyzed and the IC50 values derived from a non-linear least squares fitting of the concentration-dependent response to a standard logistic equation using Prism (Graphpad, Inc): Amplitude=Max Amplitude/(1+(IC50/[antagonist])^n).
# [4] = molecular target: human NR1/NR2A (Homo sapiens (Human), UniProt Q05586+Q12879); experiment: NR2A antagonist activity, Fluo-4 calcium influx in HEK293 cells; assay type: cell-based; conditions: Table 2.1, glutamate 100 μM, glycine 50 μM
# human NR1/NR2A, sequence (Q12879 23-1464, other chains not shown): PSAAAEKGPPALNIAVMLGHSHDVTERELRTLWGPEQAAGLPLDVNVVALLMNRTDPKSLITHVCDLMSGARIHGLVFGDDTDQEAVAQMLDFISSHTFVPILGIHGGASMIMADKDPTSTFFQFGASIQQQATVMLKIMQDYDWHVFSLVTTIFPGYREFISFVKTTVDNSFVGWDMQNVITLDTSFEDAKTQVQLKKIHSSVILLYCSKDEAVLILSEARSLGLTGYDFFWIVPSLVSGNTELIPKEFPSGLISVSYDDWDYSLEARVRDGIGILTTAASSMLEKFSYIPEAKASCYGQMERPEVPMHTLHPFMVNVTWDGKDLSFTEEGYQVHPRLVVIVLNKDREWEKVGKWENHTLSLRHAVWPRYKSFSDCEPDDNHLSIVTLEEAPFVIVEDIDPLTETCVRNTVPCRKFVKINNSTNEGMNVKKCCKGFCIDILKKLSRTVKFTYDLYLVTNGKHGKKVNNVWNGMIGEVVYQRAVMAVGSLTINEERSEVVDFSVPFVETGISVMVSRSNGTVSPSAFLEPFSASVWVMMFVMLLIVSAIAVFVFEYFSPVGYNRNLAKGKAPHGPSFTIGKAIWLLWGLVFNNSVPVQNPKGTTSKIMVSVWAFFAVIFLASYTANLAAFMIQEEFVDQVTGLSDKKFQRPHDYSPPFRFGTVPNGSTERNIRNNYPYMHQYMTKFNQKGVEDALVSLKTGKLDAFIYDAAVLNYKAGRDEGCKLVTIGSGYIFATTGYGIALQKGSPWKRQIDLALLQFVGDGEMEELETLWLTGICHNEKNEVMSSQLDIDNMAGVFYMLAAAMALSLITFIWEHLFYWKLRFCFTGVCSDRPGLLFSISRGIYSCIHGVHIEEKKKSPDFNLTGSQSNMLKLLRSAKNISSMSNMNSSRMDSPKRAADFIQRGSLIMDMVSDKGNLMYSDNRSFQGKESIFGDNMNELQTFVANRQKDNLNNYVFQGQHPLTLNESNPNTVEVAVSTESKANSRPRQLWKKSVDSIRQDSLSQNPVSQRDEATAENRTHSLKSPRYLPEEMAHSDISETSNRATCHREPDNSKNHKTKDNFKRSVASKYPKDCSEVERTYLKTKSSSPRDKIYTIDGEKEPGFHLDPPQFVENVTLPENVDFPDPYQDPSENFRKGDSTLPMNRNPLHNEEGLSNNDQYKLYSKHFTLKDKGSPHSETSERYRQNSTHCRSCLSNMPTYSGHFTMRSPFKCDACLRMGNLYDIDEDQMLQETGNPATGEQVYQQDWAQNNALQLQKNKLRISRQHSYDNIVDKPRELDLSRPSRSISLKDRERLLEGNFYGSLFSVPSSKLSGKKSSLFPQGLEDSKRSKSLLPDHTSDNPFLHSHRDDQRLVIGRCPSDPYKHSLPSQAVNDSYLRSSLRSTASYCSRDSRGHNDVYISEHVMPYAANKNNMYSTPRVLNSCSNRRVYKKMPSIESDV
# Method: as §4, §5
# [5] = test system: NMDA receptor; experiment: [3H] MK-801 radioligand binding, rat brain membranes; conditions: 2 nM [3H] MK-801
# Method: as §1, §2, §3
# [6] = molecular target: hERG channel (Homo sapiens (Human), UniProt Q12809); experiment: hERG channel inhibition, whole cell patch clamp in HEK293 cells; assay type: cell-based; conditions: 10 μM
# Method: The assay was performed on hERG channel stably expressed in HEK293 cells. The cells were cultured at 37° C. in a humidified CO2 incubator in the growth medium consisting of DMEM, 10% fetal bovine serum and antibiotics. Prior to the assay, the cells were seeded onto a 12 mm PDL-coated glass coverslip and cultured in a 35 mm Petri dish. After 16 to 40 hr culture, the cover slip was transferred into the chamber of OctaFlow perfusion system (ALA Instrument) and under a constant flow of extracellular solution (140 mM NaCl, 4 mM KCl, 1 mM MgCl2, 2 mM CaCl2, 10 mM HEPES, 10 mM D-glucose, pH 7.35, osmolarity 290). Whole cell patch clamping was performed with a glass micropipette filled with intracellular solution (120 mM KCl, 1.75 mM MgCl2, 5.4 mM CaCl2, 10 mM HEPES, 10 mM EGTA, and 4 mM ATP-K2, PH 7.2, osmolarity 310). Giga-seal was maintained during the test. The voltage control and current measurement were carried out using Axon amplifier 700B, Digidata 1440A and CLAMPEX10 software (Molecular Devices). Whole-cell hERG currents were recorded following the Petroski protocol: the cell was held at −80 mV, and the voltage step jumped from −80 to 30 mV and stay for 2 sec with a 20 ms prepulse at −40 mV. After depolarization, the voltage was decreased to −40 mV and stay for 2 sec, and returned back to −80 mV. Test compound was applied by quartz capillary tubes tip (200 μm inner diameter), and the flow rate was controlled at 2-3 ml/min with OctaFlow perfusion system. Different concentrations of the compound were applied to the cells for 5 min and the hERG current was measured three times before, during and after compound treatment. The data were analyzed using Clampfit 10 software (Molecular Devices) to generate IC50 values.
# [7] = test system: pentylenetetrazole (PTZ) induced convulsions; experiment: Pentylenetetrazole (PTZ) Seizure Test; assay type: in vivo; conditions: 10 mg/kg p.o., mesylate salt
# Method: Rats, placed in individual macrolon cages (25×19×13 cm), were injected with pentylenetetrazole (PTZ) (100 mg/kg s.c.). The occurrence and latency of clonic and tonic convulsions and death were noted over a 30 minute period. 15 rats were studied per group. The test was performed blind. […]
# Compounds were evaluated typically using 0.5% dimethylsulfoxide, 4% hydroxypropyl-b-cyclodextrin water as a vehicle at 1 or more doses (e.g., 1, 3 and 10 mg/kg), administered p.o. 30 minutes before PTZ, and compared with a vehicle control group. Diazepam (16 mg/kg p.o.), administered 60 minutes before PTZ, was used as reference substance. The experiment was performed over 2 separate sub-experiments with N=7 to 8 animals per group and per sub-experiment. Quantitative data (latencies) with the test substance was analyzed by comparing treated groups with vehicle control using Kruskal-Wallis test followed by Mann-Whitney U test. Quantitative data with the reference substance was analyzed using Mann-Whitney U test. Quantal data (frequencies) was analyzed by comparing treated groups with vehicle control using Fisher's Exact Probability tests (*=p<0.05; **=p<0.01; ***=p<0.001).
# [8] = test system: electroconvulsive threshold (tonic convulsions); experiment: Electroconvulsive Threshold Test (ECT); assay type: in vivo, rats; conditions: rats, 3 and 10 mpk p.o., mesylate salt
# Method: Test compound E1-8.2 was administered as the free base.
# Rats were administered ECS (rectangular current: 0.6 ms pulse width, 1.5 s duration, 200 Hz) via earclip electrodes connected to a constant current shock generator (Ugo Basile: type 7801). Test compounds were administered by oral gavage (p.o.) 1 hour before the test at a dose volume of 5 mL/kg.
# Treatment groups of 20 rats were exposed to ECS as follows: The first animal was exposed to 30 mA of ECS. […] (increases of 5 mA) until the first tonic convulsion was observed. Once the first tonic convulsion was observed, the intensity of ECS was decreased by 2 mA for the next animal and then decreased or increased by 2 mA from animal to animal depending on whether the previous animal convulsed or not. If the first animal did convulse (tonic convulsions) within 5 seconds, animal no2 is exposed to 25 mA, etc. . . . (decreases of 5 mA) until the absence of tonic convulsions was observed. At this point, the intensity of ECS was increased by 2 mA for the next animal and then decreased or increased by 2 mA from animal to animal depending on whether the previous animal convulsed or not. The minimum current intensity applied is 5 mA and the maximum 95 mA. The first 5 animals serve to approach threshold current and were not included in the analysis. The results are presented as the mean current intensity administered to the final 15 animals of a group. The test was performed blind. A positive percent change indicates an anticonvulsant effect. A negative percent change indicates a proconvulsant effect. The test substance was evaluated at 4 doses, typically using 0.5% dimethylsulfoxide, 4% hydroxypropyl-b-cyclodextrin water as a vehicle, and administered p.o. 60 minutes before ECS, and compared with a vehicle control group. Diazepam (16 mg/kg p.o.), administered under the same experimental conditions, was used as reference substance. The experiment included 6 groups. Data with the test substance was analyzed by comparing treated groups with vehicle control using one-way ANOVA followed by Dunnett's t tests.
# [9] = test system: haloperidol-induced catalepsy; experiment: Haloperidol-Induced Catalepsy (HIC) Model; assay type: in vivo; conditions: rats
# From the text: The Haloperidol-induced Catalepsy (HIC) model detects antipsychotic activity and the action of NR2B selective antagonists (Steece-Collier et al. Exp. Neurol. 163: 239, 2000) and was based on methods described by Chermat and Simon (J. Pharmacol., 6, 493-496, 1975). The capacity to induce catalepsy serves as an index of the liability of a test substance to induce extrapyramidal side-effects, in particular Parkinsonism. Antagonism of antipsychotic-induced catalepsy can thus serve to detect anti-Parkinson potential.
# Rats were injected with haloperidol (1 mg/kg i.p.) and were examined for catalepsy at 30 minute intervals up to 360 minutes. Presence (+) or absence (−) of catalepsy was assessed by three procedures: 1) imposed crossing of the ipsilateral fore- and hind-limbs; 2) placing the animal in the Buddha position; 3) the tilting board, an automatic device that, 5 seconds after positioning the rat, displaces the rat from a horizontal to vertical position and back while it clings to a wire grid with its front paws. Akinesia and catalepsy were assessed depending on whether or not the animal moves before (akinesia) or during operation of the board (catalepsy).
# The 4 scores were cumulated over time to give a global catalepsy score per animal. Six rats were studied per group. The test was performed blind (test substances versus vehicle). Test substances were evaluated at 1 or more doses, administered typically using 0.5% dimethylsulfoxide, 4% hydroxypropyl-b-cyclodextrin water as a vehicle p.o. 15 minutes before haloperidol (i.e. 45 minutes before the first measurement), and compared with a vehicle control group.
# Amphetamine (8 mg/kg p.o.), administered 60 minutes before the test (i.e. 90 minutes before the first measurement), was used as reference substance. Data with the test substances were analyzed by comparing treated groups with vehicle control using Kruskal-Wallis Test followed by Mann-Whitney U tests at each time and for cumulated score. Data with the reference substance were analyzed using Mann-Whitney U tests.
# [10] = Table 2.1, HEK293 human NR1/NR2B, glutamate 100 μM, glycine 50 μM
# CYP2D6, sequence (P10635 whole entry): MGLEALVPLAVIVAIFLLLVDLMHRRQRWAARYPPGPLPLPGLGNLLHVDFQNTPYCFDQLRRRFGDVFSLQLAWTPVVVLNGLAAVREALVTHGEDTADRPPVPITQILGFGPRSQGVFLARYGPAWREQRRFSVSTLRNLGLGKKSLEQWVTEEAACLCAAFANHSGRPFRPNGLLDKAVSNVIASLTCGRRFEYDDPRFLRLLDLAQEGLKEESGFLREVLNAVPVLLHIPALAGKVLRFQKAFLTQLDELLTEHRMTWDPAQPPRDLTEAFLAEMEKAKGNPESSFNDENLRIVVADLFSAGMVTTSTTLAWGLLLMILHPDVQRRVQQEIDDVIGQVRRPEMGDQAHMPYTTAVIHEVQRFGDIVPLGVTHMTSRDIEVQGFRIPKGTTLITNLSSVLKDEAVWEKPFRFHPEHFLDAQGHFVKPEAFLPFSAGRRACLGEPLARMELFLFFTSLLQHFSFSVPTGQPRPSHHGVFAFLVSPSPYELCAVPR
Compound,CYP2D6 @ 10 μM (%) [1] [%],displacement of [3H] (E)-N1-(2-methoxybenzyl)-cinnamidine at the NR2B receptor high affinity site [2] [%],Ki ([2]; read-out: Ki at the NR2B receptor high affinity site) [nM],"IC50 [3, 10] [nM]",IC50 ([3]; Table 2.2) [nM],IC50 ([3]; Table 2.3) [nM],IC50 [4] [nM],partial effect on [3H] MK-801 binding [5] [%],hERG @ 10 μM (%) [6] [%],"number of rats showing tonic convulsions, change vs vehicle controls [7] [%]","latency to clonic convulsions, change vs vehicle controls ([7]; rats)","latency to death, change vs vehicle controls ([7]; rats)","latency to tonic convulsions, change vs vehicle controls ([7]; rats)","number of deaths, change vs vehicle controls ([7]; rats) [%]","electroconvulsive threshold, pro-/anticonvulsant activity [8]",cumulated score of catalepsy over 360 mins ([9]; 3 mg/kg p.o.),cumulated score of catalepsy over 360 mins ([9]; 10 mg/kg p.o.)
"O=C(OCc1ccc(F)cc1)N1CC[C@H](CNc2nccn3cnnc23)C(F)(F)C1 [Compound E1-1.4, R-4-fluorobenzyl 4-(([1,2,4]triazolo[4,3-a]pyrazin-8-ylamino)methyl)-3,3-difluoropiperidine-1-carboxylate]",19,98,18.2,20.5,20.5,20.5,> 10000,32,11,,,,,,,,
"Cc1ccc(COC(=O)N2CC[C@H](CNc3cnccn3)C(F)(F)C2)cc1 [Compound E1-21.2, R-4-methylbenzyl 3,3-difluoro-4-((pyrazin-2-ylamino)methyl)piperidine-1-carboxylate]",97,98,,14.4,14.4,14.4,> 10000,49,27,,,,,,,,
"Cc1ccc(COC(=O)N2CC[C@H](CNc3cnc(C)cn3)C(F)(F)C2)cc1 [Compound E1-21.26, R-4-methylbenzyl 3,3-difluoro-4-((5-methylpyrazin-2-ylamino)-methyl)piperidine-1-carboxylate]",32,99,,38.7,38.7,38.7,> 10000,41,39,−82,+45%,+31%,+40%,−82,anticonvulsant activity,11.7,1.0
